Test results from patent publication US20250099557A1, “ANTIBIOTIC PHARMACEUTICAL COMPOSITION CAPABLE OF SUBCUTANEOUS ADMINISTRATION” (SHANGHAI BAO PHARMACEUTICALS CO., LTD., priority 2021, published 2025).
Like-named read-outs stand apart in the source and are kept apart here.

What was measured:
[1] = Compatibility study of HAase and antibiotic in solution: appearance of the solution; format: physicochemical; settings: 8 solutions of antibiotic (two concentrations) with HAase 150-6000 units/ml in physiological saline
Procedure: (§1) The compatibility of HAase and an antibiotic was studied by preparing a solution comprising the two substances. A dry Meropenem power for injection was dissolved in physiological saline to give a concentration of 5 mg/ml and 50 mg/ml, and then HAase was added to give a final concentration of 150, 500, 2000, and 6000 units/ml respectively. After preparation, the solution was left to stand at room temperature for 15 min. The appearance of the solution was observed, and the concentration of HAase was determined.
as §1, with “dry Ceftriaxone sodium” for “dry Meropenem”, “of 50” for “of 5”, “and 250” for “and 50”
as §1, with “dry Azithromycin” for “dry Meropenem”, “of 10” for “of 5”, “and 100” for “and 50”
as §1, with “dry Cefradine powder” for “dry Meropenem power”, “of 50” for “of 5”, “and 250” for “and 50”
as §1, with “dry Teicoplanin powder” for “dry Meropenem power”, “of 10” for “of 5”, “and 70” for “and 50”
as §1, with “dry Ceftazidime powder” for “dry Meropenem power”, “of 20” for “of 5”, “and 200” for “and 50”
as §1, with “dry Ertapenem” for “dry Meropenem”, “of 30” for “of 5”, “and 300” for “and 50”
The compatibility of HAase and an antibiotic was studied by preparing a solution comprising the two substances. A dry Polymyxin B powder for injection was dissolved in physiological saline to give a concentration of 50,000 units/ml and 250,000 units/ml, and then HAase was added to give a final concentration of 150, 500, 2000, and 6000 units/ml respectively.

in vivo = settings: male, ICR, mouse
Text: (§2) The difference in pharmacokinetics between subcutaneous administration of antibiotics combined with recombinant human HAase and traditional intravenous administration of antibiotics in mice was studied. Ceftriaxone, Ceftazidime, Ertapenem, and Teicoplanin were used as model antibiotics. A total of 48 ICR male mice were used in each antibiotic model, and divided into two groups, each having 24 mice. The two groups include a tail vein injection group, and a subcutaneous administration group of antibiotics combined with recombinant human HAase. The single dose was 100-200 mg/kg, and the drugs was respectively formulated and administered according to the scheme for each group. Blood samples were taken 5 min, 15 min, 30 min, 45 min, 1 hr, 2 hrs, 4 hrs and 8 hrs after administration. The concentration of each model antibiotic in the sample was detected by LC-MS and the pharmacokinetic parameters were calculated.

[2] = male, ICR, mouse, in vivo, sc
Text: as §2

HAase = target: T1, HAase (Homo sapiens, UniProt P38567); test: Compatibility study of HAase and antibiotic in solution: HAase activity; format: biochemical; settings: 15 min room temperature
T1 construct: made in house
T1 sequence (P38567 36-482): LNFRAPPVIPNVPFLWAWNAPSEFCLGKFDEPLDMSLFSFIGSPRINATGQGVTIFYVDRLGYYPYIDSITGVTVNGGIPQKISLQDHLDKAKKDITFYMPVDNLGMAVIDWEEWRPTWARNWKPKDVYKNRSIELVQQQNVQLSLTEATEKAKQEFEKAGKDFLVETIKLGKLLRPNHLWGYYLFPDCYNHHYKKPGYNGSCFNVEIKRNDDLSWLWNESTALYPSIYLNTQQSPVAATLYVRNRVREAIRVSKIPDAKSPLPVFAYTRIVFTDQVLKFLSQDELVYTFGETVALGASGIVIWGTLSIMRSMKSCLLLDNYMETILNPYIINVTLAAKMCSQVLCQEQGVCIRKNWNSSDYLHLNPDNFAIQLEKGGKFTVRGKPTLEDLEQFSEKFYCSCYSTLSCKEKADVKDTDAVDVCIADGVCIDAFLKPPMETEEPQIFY

[3] = Pharmacokinetics of model antibiotics in mice: tail vein injection vs subcutaneous administration combined with recombinant human HAase; settings: for AUC(0-t): AUClast
Text: as §2

[4] = ICR male mice, in combination with recombinant human HAase for subcutaneous administration, single dose 100-200 mg/kg
[5] = ICR male mice, administration by injection via tail vein, single dose 100-200 mg/kg
[6] = ICR male mice, conventional subcutaneous administration, single dose 100-200 mg/kg

## CC1=C(C(=O)O)N2C(=O)[C@@H](NC(=O)[C@H](N)C3=CCC=CC3)[C@H]2SC1 [Cefradine]
[1]
  appearance of the solution: clear and transparent

## CC(C)(O/N=C(\C(=O)N[C@@H]1C(=O)N2C(C(=O)[O-])=C(C[n+]3ccccc3)CS[C@H]12)c1csc(N)n1)C(=O)O [Ceftazidime]
[1]
  appearance of the solution: clear and transparent
In vivo; iv
  Tmax: 5 min
In vivo; sc
  Tmax: 15 min

## CO/N=C(\C(=O)N[C@@H]1C(=O)N2C(C(=O)O)=C(CSc3nc(=O)c(=O)[nH]n3C)CS[C@H]12)c1csc(N)n1 [Ceftriaxone]
[1]
  appearance of the solution: clear and transparent
[2]
  Tmax: 15 min
In vivo; iv
  Tmax: 5 min

## C[C@@H](O)[C@H]1C(=O)N2C(C(=O)O)=C(S[C@@H]3CN[C@H](C(=O)Nc4cccc(C(=O)O)c4)C3)[C@H](C)[C@H]12 [Ertapenem]
[1]
  appearance of the solution: clear and transparent
HAase; antibiotic 30 mg/ml in physiological saline, HAase added to 2000 units/ml
  Final concentration of HAase (units/ml) 2000: 2016 units/ml
HAase; antibiotic 300 mg/ml in physiological saline, HAase added to 150 units/ml
  Final concentration of HAase (units/ml) 150: 156 units/ml
[3]; [4]
  Tmax: 15 min
[3]; male, ICR, mouse, blood, iv
  Tmax: 5 min
[3]; male, ICR, mouse, blood, iv, ICR male mice, administration by injection via tail vein, single dose 100-200 mg/kg
  AUC(0-t): 450 µg·h/mL
[3]; male, ICR, mouse, blood, iv, Cmax, ICR male mice, administration by injection via tail vein, single dose 100-200 mg/kg
  Cmax: 368 µg/mL
[3]; male, ICR, mouse, blood, sc
  Tmax: 15 min
[3]; male, ICR, mouse, blood, sc, ICR male mice, conventional subcutaneous administration, single dose 100-200 mg/kg
  AUC(0-t): 442 µg·h/mL
[3]; male, ICR, mouse, blood, sc, ICR male mice, in combination with recombinant human HAase for subcutaneous administration, single dose 100-200 mg/kg
  AUC(0-t): 459 µg·h/mL
[3]; male, ICR, mouse, blood, sc, Cmax, ICR male mice, conventional subcutaneous administration, single dose 100-200 mg/kg
  Cmax: 318 µg/mL
[3]; male, ICR, mouse, blood, sc, Cmax, ICR male mice, in combination with recombinant human HAase for subcutaneous administration, single dose 100-200 mg/kg
  Cmax: 333 µg/mL

## Teicoplanin
[1]
  appearance of the solution: clear and transparent
[3]; [5]
  AUClast: 195 mg·h/L
  Cmax: 148 µg/mL
  Tmax: 5 min
[3]; [6]
  AUClast: 201 mg·h/L
  Cmax: 121 µg/mL
  Tmax: 15 min
[3]; [4]
  AUClast: 210 mg·h/L
  Cmax: 133 µg/mL
  Tmax: 15 min
